Assay [1] addresses Cdc7/Dbf4 (Homo sapiens, UniProt O00311). Nature of the assay: Cdc7 Biochemical Assay Method 3: Cdc7/Dbf4 Enzyme TR-FRET Assay measuring pS40MCM2. As to conditions: 1 μM ATP, read-out: Biochemical Method 3 (pIC50) (converted). A digest of the protocol:
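2.5 nM Cdc7/Dbf4 incubated with 100 nM biotinylated MCM2-derived peptide and 1 μM ATP, 120 minutes at 25° C. Phospho-S40 detected by TR-FRET using anti-pS40 Mcm2 antibody, terbium anti-rabbit secondary and streptavidin-Alexa Fluor488.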

For assay [2], the system named is Cdc7 (pS40MCM2 levels in HCT116 cells). Nature of the assay: Cdc7 Cell Pharmacodynamics Assay Method 2B: pS40MCM2 levels in HCT116 cells, 18 hours. The note with it: Homo sapiens, HCT-116, read-out: Biomarker Method 2B (pEC50) (converted). The assay is classed as cell-based. An excerpt: This protocol describes a method to investigate the inhibition of Cdc7 activity by measuring pS40MCM2 levels in cells, after treatment with compounds.
• HCT116 cells (ATCC, #CCL-247) • McCoys 5A with L-glutamine (Cellgro, #10-050-CV) • 10% FCS (Cellgro, #35-010-CV) • D-PBS without CaCl2 and MgCl2 (Cellgro, #21-031-CV) • Trypsin/EDTA (Cellgro, #25-052-CL) • BSA (Calbiochem, 126593) • Cell Extraction Buffer (Invitrogen FNN0011) • Protease inhibitor cocktail (Sigma P-2714) • PMSF 0.3M stock in DMSO (Sigma P7626) • Antibody-rabbit pMCM2 Ser40 (Abcam, AB133243) • Antibody-goat MCM2 (Bethyl #A300-122A) • Antibody-goat Anti Rabbit IgG HRP (Thermo, 31462) • SuperSignal ELISA Pico Chemiluminescent Substrate (Perbio Science UK Ltd 37069) • 10×PBS (Growcells, MRGF-6236) • Triton X100 (Sigma, P-T8787) • DMSO (Fisher, D128-1) • 2-Propanol (J. T. Baker, 9095-03) Method • Seed 1×10^6 HCT116 cells into each of two 175 cm^2 flask containing 30 mL Cell Growth Media and incubate at 37° C., 5% CO2 for 3 days. • Harvest the cells from one T175 cm^2 flask and count. • Dilute with Cell Growth Media to a cell density of 2×10^5. Dispense 100 μL to each well (20,000 HCT116 cells/well) of TC treated 96-well plate(s). • Allow cells to settle overnight in incubator set at 37° C. and 5% CO2. • Cell treatment: Transfer 0.25 μL/well from the compound plate to the wells of the cell plate(s). This is a 1:400 dilution of compound in the assay. • Once all cells are treated place the cells back to the incubator and incubate for either 6 hours (Method 2A) or 18 hours (Method 2B). • Dilute the capture antibody (total MCM2#A300-122A) 1 in 250 in the required volume of PBS (5 mL per assay plate, plus 5 mL for dead volume) and add 50 μL to each well of a Hybond plate except wells A12 & B12. Seal the plate and incubate at room temperature for a minimum of 2 hours. • Defrost aliquot of Invitrogen Cell Extraction Buffer (FNN0011) on ice and supplement with appropriate volume of both Sigma protease inhibitor cocktail (P-2714) and PMSF (final conc 1 mM from a 1 M stock in DMSO). • After the 6 hour or 18 hour cell treatment time, tap out the media from the assay plates and place them in the −70° C. freezer for at least 5 minutes. • Flick out the remaining liquid in the previously prepared capture Ab plate(s) and add 200 μL 2% BSA per well. Incubate for 1 hour at room temperature. • Remove plates from freezer and add 20 μL of ice cold complete lysis buffer. Incubate cells for 30 minutes at 4° C. • Add 30 μL per well 2% BSA • At the end of the 1 hour incubation, wash the Capture/ELISA plate(s) with Wash Buffer on the BioTek plate washer. • Transfer 40 μL per well of the lysis plate(s) to the same wells in the Capture/ELISA plate. Incubate cells overnight at 4° C. • At the end of the overnight incubation, wash the ELISA plate(s) with Wash Buffer on BioTek plate washer. • Prepare Detection Antibody Buffer and dispense 50 μL to all wells of ELISA plate(s) except wells G1 & H1. Cover plate and incubate at room temperature for 2 hours with gentle shaking. • At the end of the 2 hour incubation, wash the ELISA plate(s) with Wash Buffer on the BioTek plate washer. • Prepare the Conjugated Antibody Buffer and dispense 50 μL to all wells of ELISA plate(s). • Cover the plate and incubate at room temperature for 1 hour with gentle shaking. • At the end of the 1 hour incubation, wash the ELISA plate(s) with Wash Buffer on the BioTek plate washer. • Prepare Substrate Buffer and dispense 50 μL to all wells of ELISA plate(s). • Incubate for a minimum of 10 minutes and read plates on the EnVision 2100 Multilabel Reader (Mirror: Luminescence (404) & Luminescence 700 (212); Measurement Height: 6.5 mm; Measurement Time: 0.2 s). Method 3

Chain of Cdc7/Dbf4 (O00311 whole entry): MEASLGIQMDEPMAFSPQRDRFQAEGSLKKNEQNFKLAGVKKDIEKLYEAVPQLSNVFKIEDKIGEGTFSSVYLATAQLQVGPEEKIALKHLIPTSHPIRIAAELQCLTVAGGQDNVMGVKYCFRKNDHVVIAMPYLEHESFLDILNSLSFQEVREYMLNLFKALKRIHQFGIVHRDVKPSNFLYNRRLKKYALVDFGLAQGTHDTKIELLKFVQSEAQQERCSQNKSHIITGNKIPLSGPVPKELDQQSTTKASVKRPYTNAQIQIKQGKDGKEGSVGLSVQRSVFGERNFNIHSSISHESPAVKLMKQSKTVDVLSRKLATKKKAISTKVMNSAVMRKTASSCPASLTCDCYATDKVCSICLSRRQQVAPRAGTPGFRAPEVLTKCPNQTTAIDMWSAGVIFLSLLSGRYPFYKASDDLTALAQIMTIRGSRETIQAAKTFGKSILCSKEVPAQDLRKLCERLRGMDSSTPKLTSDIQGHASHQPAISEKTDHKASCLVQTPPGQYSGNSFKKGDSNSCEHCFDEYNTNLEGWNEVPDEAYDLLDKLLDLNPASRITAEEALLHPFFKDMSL
Chain of Cdc7/Dbf4 (Q9UBU7 whole entry partner): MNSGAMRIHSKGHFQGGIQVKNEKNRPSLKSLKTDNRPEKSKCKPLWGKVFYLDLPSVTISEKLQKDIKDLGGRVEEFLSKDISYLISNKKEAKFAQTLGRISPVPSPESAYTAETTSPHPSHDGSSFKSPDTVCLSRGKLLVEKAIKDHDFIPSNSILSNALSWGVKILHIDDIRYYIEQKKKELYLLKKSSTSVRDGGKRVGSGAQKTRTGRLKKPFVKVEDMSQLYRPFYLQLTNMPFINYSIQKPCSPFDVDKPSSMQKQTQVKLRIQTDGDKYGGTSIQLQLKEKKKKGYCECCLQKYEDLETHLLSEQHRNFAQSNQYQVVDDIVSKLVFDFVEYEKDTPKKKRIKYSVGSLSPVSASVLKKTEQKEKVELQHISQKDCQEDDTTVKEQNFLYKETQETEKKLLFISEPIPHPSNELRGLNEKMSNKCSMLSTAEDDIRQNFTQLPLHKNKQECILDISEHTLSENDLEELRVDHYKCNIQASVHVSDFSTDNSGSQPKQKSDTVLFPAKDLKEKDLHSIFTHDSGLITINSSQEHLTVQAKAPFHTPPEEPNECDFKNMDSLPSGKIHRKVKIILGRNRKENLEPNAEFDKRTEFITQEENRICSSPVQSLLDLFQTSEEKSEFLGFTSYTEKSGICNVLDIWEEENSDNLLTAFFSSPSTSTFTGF

Turning to `O=c1[nH]c(-c2ccncc2)nc(N2CC(F)(F)OC(F)(F)C2)c1Cl` [Compound 413, 5-chloro-2-(4-pyridyl)-4-(2,2,6,6-tetrafluoromorpholin-4-yl)-1H-pyrimidin-6-one], the IC50 in assay [1] is 1.38 nM. In assay [2], the EC50 was 309 nM.
For `O=c1[nH]c(-c2ccnc(F)c2)nc(N2CCCOCC2)c1Cl` [Compound 338], the IC50 in assay [1] was 0.708 nM. Moreover, the EC50 in assay [2] was 178 nM.
As to `CC1CN(c2nc(-c3ccnc(F)c3)[nH]c(=O)c2Cl)C(C)CO1` (stereo not shown) [Compound 340], in assay [1], the IC50 is 2.51 nM. For the same compound, the EC50 in assay [2] was 174 nM.
For `O=c1[nH]c(-c2ccnc(F)c2)nc(N2CC[C@@H]3CNC[C@@H]32)c1Cl` [Compound 261] the same measures were 0.813 nM and 537 nM.
For `O=c1[nH]c(-c2ccnc(F)c2)nc(N2CCCC3NCCC32)c1Cl` (stereo not shown) [Compound 275] the same measures were 0.794 nM and 2090 nM.
As for `O=c1[nH]c(-c2ccnc(F)c2)nc(N2CCCCC2)c1Cl` [Compound 277], the IC50 in assay [1] is 1.07 nM. The EC50 in assay [2] is 282 nM.
For `C[C@]1(N)CCN(c2nc(-c3ccnc(F)c3)[nH]c(=O)c2Cl)C1` [Compound 273] the same measures were 0.646 nM and 427 nM.
For `CC1(C)CN(c2nc(-c3ccnc(F)c3)[nH]c(=O)c2Cl)CCN1` [Compound 297] the same measures were 3.24 nM and 912 nM.
For `O=c1[nH]c(-c2ccnc(F)c2)nc(N2CCN3CCC[C@H]3C2)c1Cl` [Compound 348], the IC50 in assay [1] was 1.95 nM. In addition, in assay [2], the EC50 is 257 nM.
Take `CC1COCCCN1c1nc(-c2ccnc(F)c2)[nH]c(=O)c1Cl` (stereo not shown) [Compound 355]: the IC50 in assay [1] is 2.69 nM. The EC50 in assay [2] is 288 nM.
Consider `N#C[C@@H]1CNCCN1c1nc(-c2ccnc(F)c2)[nH]c(=O)c1Cl` [Compound 345], for which, in assay [1], the IC50 is 1.29 nM. Moreover, the EC50 in assay [2] was 1740 nM.
For `C[C@@H]1CN(c2nc(-c3ccnc(F)c3)[nH]c(=O)c2Cl)[C@H](C)CO1` [Compound 357] the same measures were 2.09 nM and 200 nM.
As for `CC1(F)CNCCN(c2nc(-c3ccnc(F)c3)[nH]c(=O)c2Cl)C1` (stereo not shown) [Compound 304], in assay [1], the IC50 was 1.38 nM. The EC50 in assay [2] is 214 nM.
For `CC1(C)CN(c2nc(-c3ccnc(F)c3)[nH]c(=O)c2Cl)CCO1` [Compound 300] the same measures were 3.02 nM and 115 nM.
For `CN[C@H]1CCN(c2nc(-c3ccnc(F)c3)[nH]c(=O)c2Cl)C1` [Compound 271] the same measures were 1.48 nM and 295 nM.
`CN(C)[C@H]1CCN(c2nc(-c3ccnc(F)c3)[nH]c(=O)c2Cl)C1` [Compound 272]: the IC50 in assay [1] was 5.5 nM. The EC50 in assay [2] was 501 nM.
For `CC[C@@H]1COCCN1c1nc(-c2ccnc(F)c2)[nH]c(=O)c1Cl` [Compound 335] the same measures were 1.1 nM and 457 nM.
For `O=c1[nH]c(-c2ccnc(F)c2)nc(N2CCCC23CCCNC3)c1Cl` (stereo not shown) [Compound 260] the same measures were 1.41 nM and 72.4 nM.
For `O=c1[nH]c(-c2ccnc(F)c2)nc(N2CCN(CC(F)F)CC2)c1Cl` [Compound 350] the same measures were 2.19 nM and 155 nM.
On to `CC1CCNCCN1c1nc(-c2ccnc(F)c2)[nH]c(=O)c1Cl` (stereo not shown) [Compound 351], for which, in assay [1], the IC50 was 1.35 nM. Besides, the EC50 in assay [2] was 138 nM.
For `C[C@@H]1CN(c2nc(-c3ccnc(F)c3)[nH]c(=O)c2Cl)CCO1` [Compound 337] the same measures were 1.12 nM and 372 nM.
For `CN1CCCN(c2nc(-c3ccnc(F)c3)[nH]c(=O)c2Cl)CC1` [Compound 298] the same measures were 4.07 nM and 331 nM.
`O=c1[nH]c(-c2ccnc(F)c2)nc(N2CCC3(COC3)C2)c1Cl` [Compound 284]: the IC50 in assay [1] was 2.09 nM. The EC50 in assay [2] is 389 nM.
